Laboratory results taken from patent US9706777B2.

Test system: Alternaria solani
Test: Alternaria test (tomatoes)/preventive
Details: 100 ppm a.i.; preventive spray on young tomato plants; evaluated 3 days after inoculation; 0% = untreated control, 100% = no disease
Method: The degree of efficacy, expressed in % is denoted.
In this case, the efficacy which was actually observed must be greater than the value for the expected efficacy (E) calculated from the abovementioned formula.
After the spray coating has dried on, the plants are inoculated with an aqueous spore suspension of Alternaria solani. The plants are then placed in an incubation cabinet at approximately 20° C. and a relative atmospheric humidity of 100%.
The test is evaluated 3 days after the inoculation.

## C#CCOc1ccc(CCNC(=O)C(OCC#C)c2ccc(Cl)cc2)cc1OC (stereo not shown) [F206 mandipropamid, mandipropamid]
  Efficacy in % found: 0%
